Laboratory results taken from PMC12179625, “Development of an LC-MS/MS method for quantification of colistin and colistin methanesulfonate in human plasma and its application to stability studies and therapeutic drug monitoring” (Journal of Mass Spectrometry and Advances in the Clinical …, 2025).
Where a SMILES comes first, the peptide text is derived from it. Bridges are numbered along the chain shown (N, C = ends). [ ]: non-standard residue; d: D form. The star is where a group is joined. Heptanoyl(6-Me) = CC(C)CCCCC(=O)*; Dab = NCC[C@H](N)C(=O)O

Experiments:
[1] = Stability of colistin A and colistin B in plasma samples; type: in vitro ADME; conditions: spiked human plasma, accuracy vs theoretical concentration, LC-MS/MS, mean ± SD, n = 3; for −80 °C freeze–thaw 3 times: three freeze–thaw cycles −80 °C to room temperature
Description: The calibration standard samples and QC samples were both obtained by diluting the corresponding working solution with blank plasma at a ratio of 1:19. The concentrations of the calibration standard samples were 0.10, 0.25, 0.50, 1.0, 2.5, 5.0, 8.0 and 10 μg/mL while the concentrations of the QC samples were 0.10 (LLOQ), 0.30 (LQC), 2.0 (MQC), 7.5 (HQC), and 30 (DQC) μg/mL.
(§1) The SPE column was activated by using 1 mL of methanol followed by 2 mL of ultrapure water. Subsequently, 200 μL of either calibration standard samples, QC samples, or patient plasma samples were mixed with 100 μL of IS working solution and 700 μL of 1.43 % ammonia, This step is to ensure that the solution is in a non-acidic environment. This mixture was thoroughly vortexed to ensure homogeneity. The mixed samples were then loaded onto the Welch BRP SPE columns. After sequentially washing the column with a total of 4 mL of 1 % ammonia, the analytes were eluted twice with 200 μL of […] (30:70, v/v) containing 4 % formic acid. Ultimately, 400 μL total eluate was collected and analyzed by LC-MS/MS.
(§2) This study investigated the stability of colistin A and colistin B during the assay process, including the stability of plasma samples at room temperature for 24 h, the stability through three cycles of repeated freeze–thaw from −80 °C to room temperature, the stability during storage at −80 °C for three months, and the autosampler stability of processed samples at 4°C for 24 h. Three parallel samples were prepared for each condition. If the accuracy of the samples under storage conditions is within 85 % to 115 %, the stability is considered acceptable.

[2] = Autosampler stability of processed colistin samples; type: physicochemical; conditions: autosampler 4 °C, accuracy, LC-MS/MS, mean ± SD, n = 3
Description: as §1, §2

Q: Which results are given for `CC(C)CCCCC(=O)N[C@@H](CCN)C(=O)N[C@H](C(=O)N[C@@H](CCN)C(=O)N[C@H]1CCNC(=O)[C@H]([C@@H](C)O)NC(=O)[C@H](CCN)NC(=O)[C@H](CCN)NC(=O)[C@H](CC(C)C)NC(=O)[C@@H](CC(C)C)NC(=O)[C@H](CCN)NC1=O)[C@@H](C)O` [Colistin B, colistin B] ({Heptanoyl(6-Me)}-[Dab]T[Dab][Dab][Dab][dL]L[Dab][Dab]T; lactam 4-C)?
A: Frozen at −80 °C for 3 months ([1]; HQC 7.5 μg/mL): 98.76 ± 4.29%; Room temperature 24 h ([1]; HQC 7.5 μg/mL): 99.39 ± 1.70%; −80 °C freeze–thaw 3 times ([1]; HQC 7.5 μg/mL): 99.13 ± 6.46%; Frozen at −80 °C for 3 months ([1]; LQC 0.30 μg/mL): 109.29 ± 3.71%; Room temperature 24 h ([1]; LQC 0.30 μg/mL): 110.01 ± 3.95%; −80 °C freeze–thaw 3 times ([1]; LQC 0.30 μg/mL): 110.17 ± 4.65%; Processed sample In the sampler at 4 °C for 24 h ([2]; SPE eluate (acetonitrile 30:70 with 4 % formic acid) of HQC 7.5 μg/mL plasma): 106.46 ± 6.48%; Processed sample In the sampler at 4 °C for 24 h ([2]; SPE eluate (acetonitrile 30:70 with 4 % formic acid) of LQC 0.30 μg/mL plasma): 108.54 ± 3.07%
